Experimental data taken from patent US8604212B2, “Anti-shock agent comprising diaminotrifluoromethylpyridine derivative” (Ishihara Sangyo Kaisha, Ltd., priority 2009, dated 2013).

Test system: mouse models with septic shock, the onset of which was peritonitis triggered by the cecal puncture
Experiment: Therapeutic effect on mouse models with septic shock, the onset of which was peritonitis triggered by the cecal puncture (viability test)
Type: in vivo
Settings: for surviving rate: female BALB/c mice
Description: Therapeutic effects of N-(2-ethylsulfonylamino-5-trifluoromethyl-3-pyridyl)cylohexanecarboxamide sodium salt monohydrate (hereinafter referred to as compound 1) on mouse models with septic shock, the onset of which was peritonitis triggered by the cecal puncture, was examined.
The compound 1 was used as a drug formulation. The formulation composition (content per one vial) was as follows.
Age: 7 weeks old when purchased and 8 weeks old when tested
The mice were pre-bred for about a week after purchase and then subjected to a test at about 8 weeks old. Breeding in the entire breeding period was carried out in an isolator placed in a large animal room. Ten mice in each group were accommodated in a polycarbonate cage throughout the test period, and they were freely fed on commercially available complete feed pellet (MF, manufactured by O. B. S.) and tap water subjected to activated carbon filtration (with use of a feed water bottle) throughout the breeding period. From the mice, mice which were healthily grown during the pre-breeding period were selected. Mice were randomly selected from the above selected mice and delivered to the respective groups one by one in the order of the animal number. The animal number was put in the order of put into a cage after the grouping.
Preparation of the drug was carried out immediately before the induction operation, and administration was carried out by using the prepared liquid for administration. Japanese Pharmacopoeia 5% glucose was injected to a formulated product containing 100 mg of the compound 1 to completely dissolve the compound 1, and a liquid for administration at the maximum dose was prepared by diluting with Japanese Pharmacopoeia 5% glucose, and a liquid for administration at a medium dose and a liquid for administration at a low dose were prepared by stepwise dilution of the liquid for administration at the maximum dose with Japanese Pharmacopoeia 5% glucose. For the non-treated group, Japanese Pharmacopoeia 5% glucose as a medium alone was prepared. Immediately after the induction, 4 hours later, 8 hours later and 12 hours later, the liquid was repeatedly administered subcutaneously to the dorsal neck to maintain the blood concentration. The liquid was administered in a volume of 10 ml/kg for each group.
Mice were anesthetized with gas-oxygen-fluothane, and the corpus 8 mm from the cecal apex was ligated through an abdominal incision, one spot in the apex was punctured and transfixed with a 22 G needle, and after leakage of cecal contents was confirmed, the cecum was completely replaced in the abdomen and the abdomen was closed.
Viability test was carried out for 3 days from immediately after the induction, and the results were summarized every 24 hours.
Employing the non-treated group as a control, comparison among groups of a group given with 0.1 mg/kg of the compound 1, a group given with 1 mg/kg of the compound 1 and a group given with 10 mg/kg of the compound 1 was carried out.
Viability test results: animals which died in 0 to 24 hours were scored 1, animals which died in 24 to 48 hours were scored 2, animals which died in 48 to 72 hours were scored 3, and animals which survived 72 hours or more were scored 4, and the obtained data were used.
Comparison among groups was carried out by Shirley-Williams' multiple comparison test.

Structure (SMILES): CCS(=O)(=O)Nc1ncc(C(F)(F)F)cc1NC(=O)C1CCCCC1.O.[Na] [Compound 1, N-(2-ethylsulfonylamino-5-trifluoromethyl-3-pyridyl)cylohexanecarboxamide sodium salt monohydrate]
- surviving rate (0.1 mg/kg x 4 times subcutaneous, 24 hr after induction of septic shock model): 20%
- surviving rate (0.1 mg/kg x 4 times subcutaneous, 48 hr after induction of septic shock model): 0%
- surviving rate (0.1 mg/kg x 4 times subcutaneous, 72 hr after induction of septic shock model): 0%
- surviving rate (1 mg/kg x 4 times subcutaneous, 24 hr after induction of septic shock model): 40%
- surviving rate (1 mg/kg x 4 times subcutaneous, 48 hr after induction of septic shock model): 10%
- surviving rate (1 mg/kg x 4 times subcutaneous, 72 hr after induction of septic shock model): 10%
- surviving rate (10 mg/kg x 4 times subcutaneous, 24 hr after induction of septic shock model): 90%
- surviving rate (10 mg/kg x 4 times subcutaneous, 48 hr after induction of septic shock model): 50%
- surviving rate (10 mg/kg x 4 times subcutaneous, 72 hr after induction of septic shock model): 50%
- improvement in the surviving rate versus non-treated group (Shirley-Williams' multiple comparison test) (administration of 10 mg/kg, P<0.001): improvement in the surviving rate with statical significance
